Where “and” joins values, the source holds several entries; their conditions need not be identical. Equal values may be shown once. Read-outs that look alike come from different tables or passages of the source. Where a SMILES comes first, the peptide text is derived from it.
Experiments:
[1] = Blood/brain exposure to NBP-14 after intranasal administration (PK assessment); type: in vivo, mice; settings: for level at 0.5 h / tissue level at time at 0.5 h: 5XFAD, mouse, inhaled or intranasal; for level at 0.5 h: blood, read-out: Blood Concentration; for tissue level at time at 0.5 h: brain, read-out: Brain Concentration
Method: Assessment of PK profile for NBP14, 10mg/kg, to allow PK/PD correlations • Satellite group of mice at T0W and T6W. • Mice from NOR test at T14W.
Group 3 TG NBP14: 5XFAD mice (n=3 for each PK) treated with NBP14 at the dose 10 mg/kg.
After 1 single treatment at the start of treatment (T0W) in a satellite group of mice.
After 6 weeks of treatment (T6W) in a satellite group of mice. The day of PK profile mice were treated with NBP14.
After 14 weeks of treatment (14W) in 2 group of mice from NOR cohorts.
On the day of PK study, mice were treated with NBP14 at 10mg/kg (IN) and blood/brain collected at 30 minutes after treatment.
An additional group of mice was subjected to blood/brain collection for NBP14 exposure without treatment on the same day at the terminal time point, after 14 weeks of treatment, to evaluate an eventual accumulation of test compound (table 1).
The inventors measured the concentration of nasally applied NBP-14 in the blood and the brain of mice, to determine whether NBP-14 was capable of crossing the blood brain barrier when applied intranasally.

[2] = test system: transgenic Tg-5XFAD mice; test: Novel Object Recognition (NOR) test for cognitive readout; type: in vivo
Source text: Assessment of Novel Object Recognition (NOR) test at the following time points: • T0W, basal NOR behaviour immediately before starting of the experiment. • T6W, 6 weeks after starting of treatment. • T14W, 14 weeks after starting of treatment.
Group 1 WT mice (n=15) used as control animal during the experimental procedure. No subject to treatment.
Group 2 TG VEH: 5XFAD mice (n=14) treated with vehicle of formulation (saline).
Group 3 TG NBP14: 5XFAD mice (n=28) treated with NBP14 at the dose 10 mg/kg.
NOR behavioural assessment time points: • Immediately before start of treatment (T0W) • 6 weeks after start of treatment (T6W) • 14 weeks after start of treatment (T14W)
Behaviour recorded on video for subsequent scoring for the object exploration. Object investigation has been defined as directing the nose towards the object (i.e., sniffing or touching with the nose) at a distance of 2 cm or less. Climbing and sitting on the objects is not considered to be object examination.
A criterion of minimal level of object exploration was used in the study to exclude animals with naturally low levels of spontaneous exploration: mice having a minimal level of object exploration of lOs during the test trail will be included in the study.
Results were expressed as the total time spent (seconds) by animal towards the objects. The recognition index (RI) was also calculated as follows: (time exploring the novel object)/(time exploring novel+familiar)*100.
The inventors utilised a “novel object recognition” test, which measures the difference of the time spent exploring an unknown (i.e. novel) object versus a known or familiar object to determine the ability of mice to discriminate between novel and familiar objections that can be used as in indication of memory. The inventors used this test to determine the ability of NBP-14 to reverse memory decline in the transgenic mouse, Tg 5XFAD, predisposed to develop amyloid precursor protein (APP) and therefore amyloid plaques, and ultimately, dementia.
The inventors then determined the recognition index of mice. A recognition index above 50% reflects the ability of mice to explore an unfamiliar object (novel) than a recently presented object.

[3] = test system: transgenic Tg-5XFAD mice; test: Behavioural scoring of grooming/sitting during NOR procedure; type: in vivo; settings: chronic treatment, T1 and T2 phase of NOR procedure, 10 min each
Method: Grooming/sitting/locomotion was measured on the mice subjected to NOR testing [i.e., Wild Type data included at 14 weeks post treatment].
Behavioural scoring was assessed during the T1 (familiar) and T2 (novel) phase of NOR procedure (over 10 min each phase).

[4] = test system: β-amyloid; test: Brain immunohistochemistry, β-amyloid (6E10 antibody); type: in vivo, mice; settings: for Mean intensity of β-amyloid (6E10) compared to vehicle: 6 weeks of treatment
Method: (§1) Group 2 TG-VEH: 5xFAD mice treated with vehicle of formulation (saline).
(§2) Group 3 TG-NBP14: 5xFAD mice treated with NBP-14 at the dose 10 mg/kg.
(§3) Histological Time-Points: • After 1 single treatment at the start of treatment, in a satellite group of mice (T0W). • After 6 weeks of treatment (T6W) in a satellite group of mice. • After 14 weeks of treatment (14W) in a group of mice from NOR cohorts (analysis ongoing).
(§4) Brain samples from all Tg-5XFAD mice were fixed, cryosectioned and immunostained for detection of amyloid, phosphorylated Tau and gliosis using the antibodies listed in Table 1.
(§5) Serial sections were collected and every sixth section starting at the midline were immunostained for markers of AD pathology. A total of six sections per animal were used for quantitative analysis.
(§6) Having shown the ability of NBP-14 to reverse the cognitive decline observed in Tg-5XFAD mice as discussed above, the inventors then sought to determine the structural or physiological changes occurring in the brains of mice treated with NBP-14. The inventors utilised histological staining of the brain to determine the changes of various brain-located markers (i.e. phosphorylated Tau, NeuN, (3-amyloid, and Ibal) that are associated with cognitive decline in both 5XFAD mice and also mice that had been treated with NBP-14. These biomarkers were measured after acute treatment with NBP-14 and also six weeks after treatment.

[5] = test system: phosphorylated Tau; test: Brain immunohistochemistry, phosphorylated Tau (AT180, AT8); type: in vivo, mice; settings: for Intracellular phosphorylated Tau immunoreactivity (AT180): hippocampus and cortex of 5XFAD mice
Method: as §1, §2, §3, §4, §5, §6

[6] = test system: Iba1 (activated microglia); test: Brain immunohistochemistry, gliosis (Iba1-positive cells); type: in vivo, mice
Method: as §1, §2, §3, §4, §5
(§7) Having shown the ability of NBP-14 to reverse the cognitive decline observed in Tg-5XFAD mice as discussed above, the inventors then sought to determine the structural or physiological changes occurring in the brains of mice treated with NBP-14. […]

[7] = test system: NeuN positive neurons; test: Brain immunohistochemistry, neuronal cell count (NeuN); type: in vivo, mice; settings: cortex and hippocampus
Method: as §1, §2, §3, §4, §5, §7

[8] = test system: 5xFAD mice; test: Clinical signs during intranasal treatment of 5xFAD mice; type: in vivo; settings: 30 mg/kg intranasal, dose lowered to 10 mg/kg from 2nd week
Method: Intranasal (IN, nose to brain) twice a week for 14 weeks (Volume of administration 10 μL/.

[9] = 10 mg/kg, 5XFAD mice, 10 mg/kg intranasal twice a week, T = 14W [terminal], sampling 30 min after administration
[10] = T = 14W [terminal], treated 14 weeks but no treated last day
[11] = acute treatment, cortex and hippocampus, visual inspection

CSCC[C@@H]1NC(=O)[C@H](Cc2ccc(O)cc2)NC(=O)[C@H](CO)NC(=O)[C@H](CO)NC(=O)[C@H](Cc2c[nH]c3ccccc23)NC(=O)[C@H](CCCNC(=N)N)NC(=O)[C@H](Cc2c[nH]cn2)NC(=O)[C@H](Cc2ccccc2)NC(=O)[C@H](CCC(=O)O)NC(=O)[C@H](C)NC(=O)[C@H](CCCCN)NC(=O)[C@H](Cc2c[nH]c3ccccc23)NC(=O)[C@H](Cc2c[nH]cn2)NC(=O)[C@H](C(C)C)NC1=O [NBP-14] (HELM PEPTIDE1{A.E.F.H.R.W.S.S.Y.M.V.H.W.K}$PEPTIDE1,PEPTIDE1,1:R1-14:R2$$$V2.0)
Brain Concentration ([1]; 5XFAD mice, 10 mg/kg intranasal, T = 0 (single treatment), sampling 30 min after administration): bql
level at 0.5 h [1, 9]: 202 ng/mL
level at 0.5 h ([1]; 10 mg/kg, 5XFAD mice, 10 mg/kg intranasal, T = 0 (single treatment), sampling 30 min after administration): 44.5 ng/mL
tissue level at time at 0.5 h ([1]; 10 mg/kg, 5XFAD mice, 10 mg/kg intranasal twice a week, T = 6W [intermediate], sampling 30 min after administration): 19.3 ng/g
tissue level at time at 0.5 h [1, 9]: 53 ng/g
BB Ratio ([1]; T = 14W [terminal], 10 mg/kg intranasal, 30 min after administration, 10 mg/kg): 0.26 and 0.21 and 0.30
Blood Concentration [1, 10]: bql
Brain Concentration [1, 10]: bql
Detection of NBP-14 in the brain ([1]; after acute treatment): no NBP-14 was observed in the brain
Detection of NBP-14 in the brain ([1]; intranasal, after both 6 weeks and 14 weeks of treatment): detected in the brain
Accumulation of the compound ([1]; mice treated for 14 weeks, not treated on the day of blood/brain collection): no accumulation
Recognition index (RI) compared to vehicle-treated 5xFAD mice ([2]; 10 mg/kg, terminal time point (14 weeks), n=27): statistical significant difference
Time exploring the novel versus familiar object ([2]; 5XFAD mice, 10 mg/kg intranasal twice a week, 6 weeks after treatment, n=28): no significant difference
Time spent exploring novel object versus familiar object ([2]; 5XFAD mice, 10 mg/kg intranasal twice a week, 14 weeks after treatment, n=27): statistically significant difference
Cognitive performance compared to 5XFAD vehicle-treated mice ([2]; 6 week time point of NOR testing): no statistically significant differences
Reduction in sitting behaviour seen in vehicle-treated Tg-5XFAD mice [3]: reversed
Mean intensity of β-amyloid (6E10) compared to vehicle ([4]; cortex (P<0.05)): significant decrease
Mean intensity of β-amyloid (6E10) compared to vehicle ([4]; hippocampus (P<0.005)): significant decrease
Extracellular amyloid plaques compared to vehicle-treated controls ([4]; 14 weeks, cortex, hippocampus and basal forebrain): significantly reduced
Mean intensity of 6E10 (Aβ) compared to vehicle [4, 11]: No differences
Intracellular phosphorylated Tau immunoreactivity (AT180) ([5]; 6 weeks treatment): no specific intracellular phosphorylated Tau immunoreactivity was detected
pTau detected with AT8 (pS202/pT205) in non-neuronal (NeuN negative) cells ([5]; 14 weeks chronic treatment, cortex and hippocampus, very low levels seen in vehicle-treated mice): not in mice treated with NBP-14
pTau detection (AT180) ([5]; 14 weeks chronic treatment, hippocampus, cortex, basal forebrain): no pTau (gold) was detected
Intracellular phosphorylated Tau immunoreactivity (AT180) ([5]; acute treatment): no specific intracellular phosphorylated Tau immunoreactivity was detected
Gliosis (Iba1-positive cells) compared to vehicle ([6]; 6 weeks of treatment, hippocampus): significant (P<0.005) decrease
Total number or density of Iba1-positive cells compared to vehicle [6, 11]: no differences
Total number or density of NeuN positive neurons compared to vehicle ([7]; 6 weeks of treatment): no differences
Total number or density of NeuN positive neurons compared to vehicle ([7]; acute treatment): no differences
Clinical signs [8]: relevant clinical sign

Source: US20240058424A1, “NBP-14 FOR TREATING ALZHEIMER'S ASSOCIATED WITH DOWN'S SYNDROME” (NEURO-BIO LTD, priority 2020, published 2024)
